{"source": "the CheMixHub viscosity set", "experiment": "xn = mol fraction of the nth substance listed", "note": "± gives the uncertainty stated by the source."}
{"smiles": "C1C[C@@H]2[C@H]3CC[C@H](C3)[C@@H]2C1", "note": "+ c1ccc2c(c1)CCCC2", "values": [{"measurement": "viscosity", "setting": "293.15 K, 100 kPa, x1 = 0.1003", "value": "2.201 ± 0.047", "unit": "mPa·s"}, {"measurement": "viscosity", "setting": "293.15 K, 100 kPa, x1 = 0.1991", "value": "2.214 ± 0.047", "unit": "mPa·s"}, {"measurement": "viscosity", "setting": "293.15 K, 100 kPa, x1 = 0.3022", "value": "2.254 ± 0.048", "unit": "mPa·s"}, {"measurement": "viscosity", "setting": "293.15 K, 100 kPa, x1 = 0.407", "value": "2.299 ± 0.05", "unit": "mPa·s"}, {"measurement": "viscosity", "setting": "293.15 K, 100 kPa, x1 = 0.4996", "value": "2.355 ± 0.051", "unit": "mPa·s"}, {"measurement": "viscosity", "setting": "293.15 K, 100 kPa, x1 = 0.5992", "value": "2.438 ± 0.053", "unit": "mPa·s"}, {"measurement": "viscosity", "setting": "293.15 K, 100 kPa, x1 = 0.7019", "value": "2.543 ± 0.056", "unit": "mPa·s"}, {"measurement": "viscosity", "setting": "293.15 K, 100 kPa, x1 = 0.7987", "value": "2.668 ± 0.06", "unit": "mPa·s"}, {"measurement": "viscosity", "setting": "293.15 K, 100 kPa, x1 = 0.8983", "value": "2.807 ± 0.063", "unit": "mPa·s"}, {"measurement": "viscosity", "setting": "298.15 K, 100 kPa, x1 = 0.1003", "value": "1.994 ± 0.042", "unit": "mPa·s"}, {"measurement": "viscosity", "setting": "298.15 K, 100 kPa, x1 = 0.1991", "value": "2.008 ± 0.043", "unit": "mPa·s"}, {"measurement": "viscosity", "setting": "298.15 K, 100 kPa, x1 = 0.3022", "value": "2.043 ± 0.044", "unit": "mPa·s"}, {"measurement": "viscosity", "setting": "298.15 K, 100 kPa, x1 = 0.407", "value": "2.088 ± 0.045", "unit": "mPa·s"}, {"measurement": "viscosity", "setting": "298.15 K, 100 kPa, x1 = 0.4996", "value": "2.139 ± 0.047", "unit": "mPa·s"}, {"measurement": "viscosity", "setting": "298.15 K, 100 kPa, x1 = 0.5992", "value": "2.214 ± 0.049", "unit": "mPa·s"}, {"measurement": "viscosity", "setting": "298.15 K, 100 kPa, x1 = 0.7019", "value": "2.307 ± 0.051", "unit": "mPa·s"}, {"measurement": "viscosity", "setting": "298.15 K, 100 kPa, x1 = 0.7987", "value": "2.416 ± 0.054", "unit": "mPa·s"}, {"measurement": "viscosity", "setting": "298.15 K, 100 kPa, x1 = 0.8983", "value": "2.546 ± 0.058", "unit": "mPa·s"}, {"measurement": "viscosity", "setting": "303.15 K, 100 kPa, x1 = 0.1003", "value": "1.816 ± 0.039", "unit": "mPa·s"}, {"measurement": "viscosity", "setting": "303.15 K, 100 kPa, x1 = 0.1991", "value": "1.831 ± 0.039", "unit": "mPa·s"}, {"measurement": "viscosity", "setting": "303.15 K, 100 kPa, x1 = 0.3022", "value": "1.864 ± 0.04", "unit": "mPa·s"}, {"measurement": "viscosity", "setting": "303.15 K, 100 kPa, x1 = 0.407", "value": "1.904 ± 0.041", "unit": "mPa·s"}, {"measurement": "viscosity", "setting": "303.15 K, 100 kPa, x1 = 0.4996", "value": "1.952 ± 0.042", "unit": "mPa·s"}, {"measurement": "viscosity", "setting": "303.15 K, 100 kPa, x1 = 0.5992", "value": "2.019 ± 0.044", "unit": "mPa·s"}, {"measurement": "viscosity", "setting": "303.15 K, 100 kPa, x1 = 0.7019", "value": "2.106 ± 0.047", "unit": "mPa·s"}, {"measurement": "viscosity", "setting": "303.15 K, 100 kPa, x1 = 0.7987", "value": "2.202 ± 0.049", "unit": "mPa·s"}, {"measurement": "viscosity", "setting": "303.15 K, 100 kPa, x1 = 0.8983", "value": "2.319 ± 0.052", "unit": "mPa·s"}, {"measurement": "viscosity", "setting": "308.15 K, 100 kPa, x1 = 0.1003", "value": "1.664 ± 0.035", "unit": "mPa·s"}, {"measurement": "viscosity", "setting": "308.15 K, 100 kPa, x1 = 0.1991", "value": "1.678 ± 0.036", "unit": "mPa·s"}, {"measurement": "viscosity", "setting": "308.15 K, 100 kPa, x1 = 0.3022", "value": "1.708 ± 0.037", "unit": "mPa·s"}, {"measurement": "viscosity", "setting": "308.15 K, 100 kPa, x1 = 0.407", "value": "1.746 ± 0.038", "unit": "mPa·s"}, {"measurement": "viscosity", "setting": "308.15 K, 100 kPa, x1 = 0.4996", "value": "1.79 ± 0.039", "unit": "mPa·s"}, {"measurement": "viscosity", "setting": "308.15 K, 100 kPa, x1 = 0.5992", "value": "1.851 ± 0.041", "unit": "mPa·s"}, {"measurement": "viscosity", "setting": "308.15 K, 100 kPa, x1 = 0.7019", "value": "1.929 ± 0.043", "unit": "mPa·s"}, {"measurement": "viscosity", "setting": "308.15 K, 100 kPa, x1 = 0.7987", "value": "2.018 ± 0.045", "unit": "mPa·s"}, {"measurement": "viscosity", "setting": "308.15 K, 100 kPa, x1 = 0.8983", "value": "2.122 ± 0.048", "unit": "mPa·s"}, {"measurement": "viscosity", "setting": "313.15 K, 100 kPa, x1 = 0.1003", "value": "1.531 ± 0.033", "unit": "mPa·s"}, {"measurement": "viscosity", "setting": "313.15 K, 100 kPa, x1 = 0.1991", "value": "1.545 ± 0.033", "unit": "mPa·s"}, {"measurement": "viscosity", "setting": "313.15 K, 100 kPa, x1 = 0.3022", "value": "1.574 ± 0.034", "unit": "mPa·s"}, {"measurement": "viscosity", "setting": "313.15 K, 100 kPa, x1 = 0.407", "value": "1.608 ± 0.035", "unit": "mPa·s"}, {"measurement": "viscosity", "setting": "313.15 K, 100 kPa, x1 = 0.4996", "value": "1.648 ± 0.036", "unit": "mPa·s"}, {"measurement": "viscosity", "setting": "313.15 K, 100 kPa, x1 = 0.5992", "value": "1.704 ± 0.037", "unit": "mPa·s"}, {"measurement": "viscosity", "setting": "313.15 K, 100 kPa, x1 = 0.7019", "value": "1.775 ± 0.039", "unit": "mPa·s"}, {"measurement": "viscosity", "setting": "313.15 K, 100 kPa, x1 = 0.7987", "value": "1.855 ± 0.041", "unit": "mPa·s"}, {"measurement": "viscosity", "setting": "313.15 K, 100 kPa, x1 = 0.8983", "value": "1.95 ± 0.044", "unit": "mPa·s"}, {"measurement": "viscosity", "setting": "318.15 K, 100 kPa, x1 = 0.1003", "value": "1.414 ± 0.03", "unit": "mPa·s"}, {"measurement": "viscosity", "setting": "318.15 K, 100 kPa, x1 = 0.1991", "value": "1.428 ± 0.031", "unit": "mPa·s"}, {"measurement": "viscosity", "setting": "318.15 K, 100 kPa, x1 = 0.3022", "value": "1.454 ± 0.031", "unit": "mPa·s"}, {"measurement": "viscosity", "setting": "318.15 K, 100 kPa, x1 = 0.407", "value": "1.486 ± 0.032", "unit": "mPa·s"}, {"measurement": "viscosity", "setting": "318.15 K, 100 kPa, x1 = 0.4996", "value": "1.523 ± 0.033", "unit": "mPa·s"}, {"measurement": "viscosity", "setting": "318.15 K, 100 kPa, x1 = 0.5992", "value": "1.574 ± 0.035", "unit": "mPa·s"}, {"measurement": "viscosity", "setting": "318.15 K, 100 kPa, x1 = 0.7019", "value": "1.639 ± 0.036", "unit": "mPa·s"}, {"measurement": "viscosity", "setting": "318.15 K, 100 kPa, x1 = 0.7987", "value": "1.712 ± 0.038", "unit": "mPa·s"}, {"measurement": "viscosity", "setting": "318.15 K, 100 kPa, x1 = 0.8983", "value": "1.798 ± 0.041", "unit": "mPa·s"}, {"measurement": "viscosity", "setting": "323.15 K, 100 kPa, x1 = 0.1003", "value": "1.311 ± 0.028", "unit": "mPa·s"}, {"measurement": "viscosity", "setting": "323.15 K, 100 kPa, x1 = 0.1991", "value": "1.325 ± 0.028", "unit": "mPa·s"}, {"measurement": "viscosity", "setting": "323.15 K, 100 kPa, x1 = 0.3022", "value": "1.349 ± 0.029", "unit": "mPa·s"}, {"measurement": "viscosity", "setting": "323.15 K, 100 kPa, x1 = 0.407", "value": "1.379 ± 0.03", "unit": "mPa·s"}, {"measurement": "viscosity", "setting": "323.15 K, 100 kPa, x1 = 0.4996", "value": "1.413 ± 0.031", "unit": "mPa·s"}, {"measurement": "viscosity", "setting": "323.15 K, 100 kPa, x1 = 0.5992", "value": "1.459 ± 0.032", "unit": "mPa·s"}, {"measurement": "viscosity", "setting": "323.15 K, 100 kPa, x1 = 0.7019", "value": "1.519 ± 0.034", "unit": "mPa·s"}, {"measurement": "viscosity", "setting": "323.15 K, 100 kPa, x1 = 0.7987", "value": "1.586 ± 0.035", "unit": "mPa·s"}, {"measurement": "viscosity", "setting": "323.15 K, 100 kPa, x1 = 0.8983", "value": "1.663 ± 0.038", "unit": "mPa·s"}]}
{"smiles": "Nc1ccc(S(=O)(=O)[O-])cc1.[Na+]", "note": "+ O", "values": [{"measurement": "viscosity", "setting": "298.15 K, 101 kPa, x1 = 9e-05", "value": "0.899 ± 0.009", "unit": "mPa·s"}, {"measurement": "viscosity", "setting": "298.15 K, 101 kPa, x1 = 0.00018", "value": "0.9 ± 0.009", "unit": "mPa·s"}, {"measurement": "viscosity", "setting": "298.15 K, 101 kPa, x1 = 0.0009", "value": "0.915 ± 0.009", "unit": "mPa·s"}, {"measurement": "viscosity", "setting": "298.15 K, 101 kPa, x1 = 0.0018", "value": "0.93 ± 0.009", "unit": "mPa·s"}, {"measurement": "viscosity", "setting": "298.15 K, 101 kPa, x1 = 0.00448", "value": "0.984 ± 0.01", "unit": "mPa·s"}, {"measurement": "viscosity", "setting": "298.15 K, 101 kPa, x1 = 0.00893", "value": "1.076 ± 0.011", "unit": "mPa·s"}, {"measurement": "viscosity", "setting": "298.15 K, 101 kPa, x1 = 0.0133", "value": "1.174 ± 0.012", "unit": "mPa·s"}, {"measurement": "viscosity", "setting": "298.15 K, 101 kPa, x1 = 0.0177", "value": "1.281 ± 0.011", "unit": "mPa·s"}, {"measurement": "viscosity", "setting": "318.15 K, 101 kPa, x1 = 9e-05", "value": "0.598 ± 0.006", "unit": "mPa·s"}, {"measurement": "viscosity", "setting": "318.15 K, 101 kPa, x1 = 0.00018", "value": "0.599 ± 0.006", "unit": "mPa·s"}, {"measurement": "viscosity", "setting": "318.15 K, 101 kPa, x1 = 0.0009", "value": "0.61 ± 0.006", "unit": "mPa·s"}, {"measurement": "viscosity", "setting": "318.15 K, 101 kPa, x1 = 0.0018", "value": "0.62 ± 0.006", "unit": "mPa·s"}, {"measurement": "viscosity", "setting": "318.15 K, 101 kPa, x1 = 0.00448", "value": "0.654 ± 0.006", "unit": "mPa·s"}, {"measurement": "viscosity", "setting": "318.15 K, 101 kPa, x1 = 0.00893", "value": "0.71 ± 0.007", "unit": "mPa·s"}, {"measurement": "viscosity", "setting": "318.15 K, 101 kPa, x1 = 0.0133", "value": "0.771 ± 0.007", "unit": "mPa·s"}, {"measurement": "viscosity", "setting": "318.15 K, 101 kPa, x1 = 0.0177", "value": "0.838 ± 0.008", "unit": "mPa·s"}]}
